Test [1] has as its system SD rats. Put plainly: Gastric ulcer model (diclofenac-induced ulcer in gastric corpus). It counts as in vivo. The note with it: 1 hour before diclofenac 40 mg/kg oral, measured 6 hours after diclofenac. As for the experimental part: A test compound was suspended in a 0.5% methyl cellulose (MC) solution to prepare a chemical liquid having a concentration 5 ml/kg; and this was orally administered to SD rats (n=12 in each group). The test compound was controlled to be 10 mg/kg or 30 mg/kg. A control group was separately prepared, in which 5 ml/kg of the 0.5% MC solution was orally administered to the rats. After 1 hour, 40 mg/kg of NSAID, diclofenac (by Sigma) was orally administered to all rats of all groups, as a suspension in 0.5% MC solution (5 ml/kg). In 6 hours after the diclofenac administration, the length of the ulcer formed in the gastric corpus was measured using a stereomicroscope (by Nikon) and a micrometer (by Olympus), and the data of 12 cases were averaged. The antiulceration potency (%) of the test compound was computed according to the following formula: Antiulceration Potency (%): [1−(mean ulcer length of compound-administered group/mean ulcer length of 0.5% MC-administered group)]×100.

Test [2] deals with T1, xanthine oxidase (derived from butter milk, by Sigma) (Bos taurus, UniProt P80457).
T1 construct: xanthine oxidase (derived from butter milk, by Sigma); purchased Sigma; host or cells: butter milk (natural source)
T1 sequence (P80457 whole entry): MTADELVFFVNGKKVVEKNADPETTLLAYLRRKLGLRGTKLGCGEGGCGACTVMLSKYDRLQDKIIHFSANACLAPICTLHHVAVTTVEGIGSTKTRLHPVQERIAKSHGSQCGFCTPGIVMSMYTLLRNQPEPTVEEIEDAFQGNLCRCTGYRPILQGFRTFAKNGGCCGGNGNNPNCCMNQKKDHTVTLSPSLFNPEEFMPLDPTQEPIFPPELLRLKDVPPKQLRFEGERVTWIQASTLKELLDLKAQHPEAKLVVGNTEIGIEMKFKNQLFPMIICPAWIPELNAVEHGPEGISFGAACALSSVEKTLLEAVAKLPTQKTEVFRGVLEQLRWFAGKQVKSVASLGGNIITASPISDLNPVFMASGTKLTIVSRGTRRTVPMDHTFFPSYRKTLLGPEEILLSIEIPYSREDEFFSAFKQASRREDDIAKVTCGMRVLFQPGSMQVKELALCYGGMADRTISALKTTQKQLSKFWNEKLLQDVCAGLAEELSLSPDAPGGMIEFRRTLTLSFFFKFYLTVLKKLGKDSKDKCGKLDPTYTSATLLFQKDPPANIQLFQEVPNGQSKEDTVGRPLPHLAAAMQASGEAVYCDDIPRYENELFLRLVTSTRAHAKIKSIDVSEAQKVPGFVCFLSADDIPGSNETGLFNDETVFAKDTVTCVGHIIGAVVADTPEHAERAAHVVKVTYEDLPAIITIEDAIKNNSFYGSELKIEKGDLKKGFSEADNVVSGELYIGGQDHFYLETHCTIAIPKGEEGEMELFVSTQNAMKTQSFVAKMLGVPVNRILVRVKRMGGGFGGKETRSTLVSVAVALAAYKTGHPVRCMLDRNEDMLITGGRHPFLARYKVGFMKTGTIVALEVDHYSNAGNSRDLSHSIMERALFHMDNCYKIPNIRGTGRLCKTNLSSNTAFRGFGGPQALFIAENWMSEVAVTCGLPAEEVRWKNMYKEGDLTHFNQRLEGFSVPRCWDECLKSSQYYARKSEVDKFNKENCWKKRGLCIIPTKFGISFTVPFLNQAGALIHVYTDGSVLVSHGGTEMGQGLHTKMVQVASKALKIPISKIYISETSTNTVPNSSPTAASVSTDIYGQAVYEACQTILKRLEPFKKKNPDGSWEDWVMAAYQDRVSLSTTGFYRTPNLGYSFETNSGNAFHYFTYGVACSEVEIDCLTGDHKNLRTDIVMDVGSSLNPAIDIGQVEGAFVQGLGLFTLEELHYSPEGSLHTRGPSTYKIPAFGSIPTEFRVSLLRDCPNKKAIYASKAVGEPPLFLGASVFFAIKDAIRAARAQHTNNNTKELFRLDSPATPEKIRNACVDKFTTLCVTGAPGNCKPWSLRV
Briefly: Xanthine oxidase inhibiting activity (pterin fluorescence assay). It counts as biochemical. The settings on record: xanthine oxidase 0.03 units/ml, pterin 5 μM, room temperature. As for the experimental part:
A test compound was dissolved in DMSO (by Nacalai) to have a concentration of 10 mM, and then just before use, its concentration was adjusted to a desired one.
The xanthine oxidase inhibitory activity of the compound of the present invention was evaluated according to a partly modified method of a method described in a reference “Free Radic. Biol. Med. 6, 607-615, 1992”. Concretely, xanthine oxidase (derived from butter milk, by Sigma) was mixed with 50 mM phosphate buffer to be 0.03 units/ml, and applied to a 96-well plate in an amount of 50 μl/well. The test compound diluted to have a final concentration was added to the plate in an amount of 2 μl/well, and processed at room temperature for 20 minutes. Pterin (by Sigma) was added to it to have a final concentration of 5 μM in an amount of 50 μl/well, and reacted at room temperature for 10 minutes. Under a condition of excitation at 345 nm and emission at 390 nm (pterin is oxidized by xanthine oxidase to give isoxanthopterin, and under the condition it emits light), the sample was analyzed using a microplate reader sapphire (by Tacan).
The light emission by isoxanthopterin in the presence or absence of xanthine oxidase was defined as 0% inhibition and 100% inhibition, respectively, and the concentration (IC50) of the test compound for 50% inhibition was computed.

For test [3], the system named is SD rats. Briefly: Small intestine ulcer model (indomethacin-induced ulcer). The format is in vivo. The settings on record: 10 mg/kg oral, 1 hour before and 9 hours after indomethacin 10 mg/kg oral, measured after 24 hours. Here is the method:
A test compound was suspended in a 0.5% methyl cellulose (MC) solution to prepare a chemical liquid having a concentration 5 ml/kg; and this was orally administered to SD rats (n=10 in each group). The test compound was controlled to be 10 mg/kg in every case. A control group was separately prepared, in which 5 ml/kg of the 0.5% MC solution was orally administered to the rats. After 1 hour, 10 mg/kg of NSAID, indomethacin (by Sigma) was orally administered to the rats, as a suspension in 0.5% MC solution (5 ml/kg). In 9 hours after the indomethacin administration, the test compound was again orally administered to every rat in the same amount as previously; and after 24 hours, the area of the ulcer formed in the small intestine was measured using a stereomicroscope (by Nikon) and a micrometer (by Olympus), and the data of 10 cases were averaged. The antiulceration potency (%) of the test compound was computed according to the following formula: Antiulceration Potency (%): [1−(mean ulcer area of compound-administered group/mean ulcer area of 0.5% MC-administered group)]×100.

As for `Cc1nc(-c2ccc(OCC(C)C)c(C#N)c2)sc1C(=O)O` [Compound A, 2-(3-cyano-4-isobutyloxyphenyl)-4-methyl-1,3-thiazole-5-carboxylic acid], the “Antiulceration potency (inhibitory potency), mean ulcer length in gastric corpus vs 0.5% MC group” value in the test with SD rats [1] (30 mg/kg oral) is 36%. Same read-out and setting: in the case of `CC(C)(C)COc1ccc(-n2cc(C(=O)O)cn2)cc1C#N` [Compound B, 1-(3-cyano-4-neopentyloxyphenyl)-1H-pyrazole-4-carboxylic acid] it was 43%. Regarding `CC(C)COc1ccc(-c2cc(C(=O)O)ccn2)cc1C(F)(F)F` [Example 30], the half-inhibitory concentration (IC50) in test [2] was 6.3 nM. On the same count and under the same terms, under `CC(C)CSc1ccc(-c2cc(C(=O)O)ccn2)cc1C#N` [Example 53] stands 2.5 nM. As to `N#Cc1cc(-c2ccc(C(=O)O)s2)cc(F)c1OC1CCCC1` [Example 119], in test [2], the IC50 amounted to 1.5 nM. `Oc1ncnc2[nH]ncc12` [allopurinol, reference compound]: the “Antiulceration potency (inhibitory potency), mean ulcer length in gastric corpus vs 0.5% MC group” value with SD rats [1] (30 mg/kg oral) is recorded as “no inhibitory potency was confirmed”. In addition, the “Antiulceration potency (inhibitory potency), mean ulcer area in small intestine vs 0.5% MC group” value in the test with SD rats [3] is reported as “no inhibitory potency was confirmed”. In the case of `N#Cc1cc(-c2cc(C(=O)[O-])ccn2)ccc1-c1ccccc1.[Na+]` [compound 8], the “Antiulceration potency (inhibitory potency), mean ulcer length in gastric corpus vs 0.5% MC group” value in the test on SD rats [1] (30 mg/kg oral) is 72%. The “Antiulceration potency (inhibitory potency), mean ulcer area in small intestine vs 0.5% MC group” value in the test on SD rats [3] is on record as 29%. For the molecule `N#Cc1cc(-c2cc(C(=O)O)ccn2)ccc1-c1ccc(F)cc1` [compound 133], the IC50 in test [2] was no more than 20 nM.

In test [2], `COc1ccccc1-c1ccc(-c2cc(C(=O)O)ccn2)cc1C#N` [compound 138] registered an IC50 of no more than 20 nM.

On to `N#Cc1cc(-c2cc(C(=O)O)ccn2)ccc1-c1ccsc1` [compound 141], for which the IC50 in test [2] was no more than 20 nM.

Take `N#Cc1ccc(-c2ccc(-c3cc(C(=O)O)ccn3)cc2C#N)cc1` [compound 143]: the IC50 in test [2] was no more than 20 nM. As for `N#Cc1cc(-c2cc(C(=O)O)ccn2)ccc1-c1ccco1` [compound 145], the IC50 in test [2] is no more than 20 nM. In test [2], `CC(C)(C)c1ccc(-c2ccc(-c3cc(C(=O)O)ccn3)cc2C#N)cc1` [compound 153] registered a half-inhibitory concentration (IC50) of no more than 20 nM. The same measure, in the same setting: under `N#Cc1cc(-c2cc(C(=O)O)ccn2)ccc1-c1ccc(Oc2ccccc2)cc1` [compound 166] stands no more than 20 nM.

As for `N#Cc1cc(-c2cc(C(=O)O)ccn2)ccc1-c1ccc2c(c1)OCO2` [compound 169], the IC50 in test [2] was no more than 20 nM. Still for that read-out and setting: in the case of `N#Cc1cc(-c2cc(C(=O)O)ccn2)ccc1-n1ncc2ccccc21` [compound 179] it was no more than 20 nM.

Turning to `Cc1nc(-c2ccc(-c3ccccc3)c(C#N)c2)sc1C(=O)O` [compound 237], in the test with SD rats [1] (10 mg/kg oral), the “Antiulceration potency (inhibitory potency), mean ulcer length in gastric corpus vs 0.5% MC group” value is on record as 32%. Besides, the IC50 in test [2] was no more than 20 nM. The “Antiulceration potency (inhibitory potency), mean ulcer area in small intestine vs 0.5% MC group” value with SD rats [3] is reported as 59%.

`Cc1nc(-c2ccc(-c3ccc(OC(F)(F)F)cc3)c(C#N)c2)sc1C(=O)O` [compound 240]: in test [2], the IC50 is no more than 20 nM. As to `Cc1cccc(-c2ccc(-c3nc(C)c(C(=O)O)s3)cc2C#N)c1` [compound 243], the IC50 in test [2] is no more than 20 nM. As for `N#Cc1cc(-c2ncc(C(=O)O)s2)ccc1-c1ccccc1` [compound 250], the IC50 in test [2] is no more than 20 nM. Also, in the test with SD rats [3], the “Antiulceration potency (inhibitory potency), mean ulcer area in small intestine vs 0.5% MC group” value was found to be 73%.

As to `N#Cc1cc(-n2cc(C(=O)O)cn2)ccc1-c1ccccc1` [compound 251], the “Antiulceration potency (inhibitory potency), mean ulcer length in gastric corpus vs 0.5% MC group” value in the test with SD rats [1] (30 mg/kg oral) worked out at 43%. The molecule further yielded an IC50 in test [2] of no more than 20 nM. Also, the “Antiulceration potency (inhibitory potency), mean ulcer area in small intestine vs 0.5% MC group” value with SD rats [3] is given as 41%.

Molecule `Cc1ccc(-c2ccc(-n3cc(C(=O)O)cn3)cc2C#N)cc1` [compound 252] had a half-inhibitory concentration (IC50) in test [2] of no more than 20 nM.

The term IC50 denotes the concentration that gives 50% inhibition. A high value points to weaker potency in that assay.

For the origin of these results see US8426453B2 (Astellas Pharma Inc., priority 2006, dated 2013).
